US20220332799A1, “HERV INHIBITORS FOR USE IN TREATING TAUOPATHIES” (Deutsches Zentrum Für Neurodegenerative Erkrankungen E.V. …, priority 2019, published 2022)

Experiments:
[1] = test system: HEK Tau-FusionRed^sol cells expressing murine XPR1-HA; test: Tau aggregate induction in recipient cells by EVs from N2a s2E Tau-GFP^CBD donor cells; assay type: cell-based, human; details: EVs from treated donors; recipients cultured in drug-containing medium, 3 d
Description: To examine this effect on Tau aggregate spreading, an N2a s2E cell clone stably propagating aggregated Tau-GFP^CBD was produced (FIG. 11a). […]. Cells and EVs were analyzed for the presence of aggregated Tau-GFP. Pronase-resistant Tau-GFP was found in both cell lysate and EVs (FIG. 2q). To inhibit MuERV gene product maturation, donor cells were treated with Amprenavir for three days. Donor cells and donor cell-derived EVs were subsequently exposed for three days to recipient HEK cells expressing soluble Tau-FusionRed and the murine XPR1 receptor variant required for MuERV Env interaction. Due to this long incubation time, the coculture and EV induction assays were performed in the presence of Amprenavir (FIG. 11b). […]
Recipient cells were cultured on CellCarrier-96 plates or 384 black microplates (PerkinElmer) at appropriate cell numbers for 1 h, and then treated with 5-10 μl of prepared samples (isolated EVs or recombinant NM fibrils). […] On average, a total of 3-4×10^4 cells per well and at least 3 wells per treatment were analyzed.
The treatment of cells with Amprenavir (10 μM; Santa Cruz) and DMSO was performed for 72 h in EV-depleted medium in T175 flasks. Afterwards, the total numbers of viable cells and the viability upon drug treatment were determined using the Vi-VELL™ XR Cell Viability Analyzer (Beckman Coulter). […]

[2] = test system: HERV-K; details: Tyagi et al., Retrovirology (2017), 14:21; cited from earlier work

Question: With `CC(C)CN(C[C@@H](O)[C@H](Cc1ccccc1)NC(=O)O[C@H]1CCOC1)S(=O)(=O)c1ccc(N)cc1` [Amprenavir] as the compound, how does the “Tau-FusionRed aggregate induction by EVs” value [1] read?
Answer: also decreased Tau-FusionRed aggregate induction in murine XPR1 expressing recipient cells

Question: What about the “effectiveness against HERV-K” value [2] of the same compound?
Answer: effective against HERV-K
